Patent US9895345B2, “Use of Lappaol F to inhibit tumor cell growth” (The Research Foundation Foundation for the State University …, priority 2013, dated 2018)
Entries after “also recorded” stand apart in the source; their conditions may differ.

How the values were obtained:
wild-type p53 = test: Wild-type p53 expression by Western blotting; format: cell-based, Human
Method: (§1) FIG. 7: Lappaol F suppresses expression of mutant-p53 by reducing its half-life. A-C. Lappaol F has minimal effect on wild-type p53 protein expression in cells (MCF-7 and RKO) expressing wild-type p53 (A & C); however, Lappaol F strongly reduces mutant-p53 protein expression in MDA-MB-231, MDA-MB-468 and T47D cells (B & C). D & E. Treatment of Lappaol F reduces mutant-p53 protein half-life in MDA-MB-231 cells. Cells were first treated with or without with Lappaol F (50 μM) for 24 hours, cycloheximide (50 μg/ml) was then added into the cell culture medium for 0-8 hours and cells were harvested at 0, 2, 4, 6 and 8 hours after cycloheximide was added. Samples were subjected to Western blot analysis and the half-life of mutant p53 for cells treated with or without Lappaol F was determined F & G. Lappaol F decreases mutant p53 protein half-life in T47D cells. Mutant-p53 half-life was determined as described.
(§2) Western blotting was done by standard protocols. Sources of the antibodies are as follows: antibodies for p21 and GAPDH were from Santa Cruz Biotechnology (Santa Cruz, Calif.); cyclin B1 antibody was from BD bioscience (San Jose, Calif.); p27 antibody was from Cell Signaling Technology (Danvers, Mass.). CDK1 and CDK2 were from Assay Biotechnology (Sunnyvale, Calif.). […]

MDA-MB-231 cells [1] = test: MTT cell proliferation assay; format: cell-based, Human; details: read-out: estimated absolute EC50 of cell growth suppression
Method: (§3) MTT cell proliferation assays were performed as follows. Briefly, cells seeded in 12-well plate with or without drug treatment were incubated with 0.5 mg/ml 3-[4, 5-dimethylthiazol-2-yl]-2, 5-diphenyl tetrazolium bromide (MTT) for 1-4 hours. The resulting formazan precipitate was dissolved in isopropanol with 0.04 M HCl. Absorbance was read with a Bio-Rad SmartSpec 3100 at 570 nm with background subtraction read at 690 nm.

MCF-7 cells [2] = test: MTT cell proliferation assay; format: cell-based, Human; details: read-out: estimated absolute EC50 of cell growth suppression
Method: as §3

RKO cells [3] = test: MTT cell proliferation assay; format: cell-based, Human; details: read-out: estimated absolute EC50 of cell growth suppression
Method: as §3

[4] = tested on: p21 promoter (RKO, MCF-7, Hela, MDA-MB-231); test: p21 promoter luciferase assay in four cell lines; format: cell-based, Human; details: 50 μM, 24 hours
Method: (§4) FIG. 6: Lappaol F induces p21-promoter activation in cells with wild-type p53 and defective-p53. A&B MCF-7, MDA-MB-231 and RKO cells were untreated (DMSO) or treated with Lappaol F (50 μM) for 48 hrs; cells were then split into two parts; one part was used to analyze p21 mRNA expression by Northern blotting (A) and another part was utilized for p21 protein analysis by Western blotting (B). A full-length p21 cDNA was used as a probe for Northern blot analysis. C & D. p21 promoter luciferase activity in Lappaol F-treated and untreated cells with different p53 status. RKO and MCF-7 cells express the wild type-p53 protein whereas MDA-MB-231 expressing the mutant-p53. Hela cells harbor human papilloma virus; and p53 protein is not functional in these cells. Cells, transfected with p21 promoter luciferase construct, were untreated (DMSO) or treated with Lappaol F (50 μM) for 24 hours then analyzed for luciferase activity.
(§5) Luciferase assays were performed as follows. Briefly, cells transiently transfected with the p21-promoter luciferase construct were treated with or without Lappaol F (50 μM). Twenty-four hours later, luciferase activity of each cell lysate was analyzed using the Luciferase assay system (Thermo Scientific, Rockford, Ill.) with LUMAT LB9507 luminometer (Berthold Technologies, Germany).

[5] = tested on: p21 promoter in RKO p53-deficient (p53-/-) cells; test: p21 promoter luciferase assay; format: cell-based, Human; details: 50 μM, 24 hours
Method: as §4, §5

[6] = tested on: p21 promoter in RKO p53-proficient (p53+/+) cells; test: p21 promoter luciferase assay; format: cell-based, Human; details: 50 μM, 24 hours
Method: as §4, §5

[7] = tested on: tumor cell lines of different tissue types; test: Initial cytotoxic screening (colony formation, microscopy); format: cell-based, Human; details: colon, breast, lung, cervix lines; 50 μM, 72 hours
Method: (§6) FIG. 1: A. The chemical structure of Lappaol F. B & C. […] Cells shown were treated with or without Lappaol F (50 μM) for 72 hours. D & E. Results of 3-[4, 5-dimethylthiazol-2-yl]-2, 5-diphenyl tetrazolium bromide (MTT) assays showing Lappaol F inhibits tumor cell growth in time- and dose-dependent manners in different cancer cell lines. F & G. MCF10A non-tumorigenic breast epithelial cells treated with Lappaol F (50 μM) for 3 days (F) or 6 days (G). After treatment, cells were harvested for MTT assays (G) or photographs were taken under a phase contrast microscope (F). H. Results of colony formation assay showing that Lappaol F inhibits colony formation by A549 (lung), HCT116 (colon) and DU145 (prostate) tumor cells. I-N. Results of MTT assays showing Lappaol F suppresses cell growth in leukemia, melanoma and sarcoma cell lines.

HeLa cells = test: Flow cytometry cell cycle analysis; format: cell-based, Human; details: 50 μM, 72 hrs
Method: (§7) FIG. 2: Lappaol F induces G1 and G2 cell cycle arrest. (A) Flow cytometry cell cycle analyses performed on cells treated with vehicle (DMSO) or Lappaol F (50 μM) for 72 hrs. (B) DAPI staining of RKO cells treated with Lappaol F (50 μM) for 72 hours. The number of mitotic cells over the total cells (mitotic index, MI) is also shown.
(§8) Cell cycle profile was determined by flow cytometry as follows. For determining the mitotic index, cells treated with or without Lappaol F were stained with 4′, 6-diamidino-2-phenylindole (DAPI). The number of mitotic cells was counted under a fluorescence microscope. Over 600 cells were counted in each sample and experiments were repeated at least three times.

MDA-MB-231 cells [8] = test: Flow cytometry cell cycle analysis; format: cell-based, Human; details: 50 μM, 72 hrs
Method: as §7, §8

MCF-7 cells [9] = test: Flow cytometry cell cycle analysis; format: cell-based, Human; details: 50 μM, 72 hrs
Method: as §7, §8

RKO cells [10] = test: Flow cytometry cell cycle analysis; format: cell-based, Human; details: 50 μM, 72 hrs
Method: as §7, §8

c-Myc, MDM2 and HuR = test: Oncogenic protein expression by Western blotting; format: cell-based, Human; details: 50 μM
Method: FIG. 8: Lappaol F down regulates the expression of several oncogenic proteins commonly overexpressed in human cancers and linked to oncogenic transformation. A-C. Lappaol F suppresses the expression of c-Myc (A), MDM2 (B) and HuR (C). Cells were untreated (“C”) or treated with Lappaol F (50 μM) for the indicated times and Western blot analyses were performed using the indicated antibodies.
(§9) Western blotting was done by standard protocols. Sources of the antibodies are as follows: antibodies for p21 and GAPDH were from Santa Cruz Biotechnology (Santa Cruz, Calif.); cyclin B1 antibody was from BD bioscience (San Jose, Calif.); p27 antibody was from Cell Signaling Technology (Danvers, Mass.). CDK1 and CDK2 were from Assay Biotechnology (Sunnyvale, Calif.). Northern blot analysis was performed. and a full-length p21 cDNA was used as a probe for detecting the expression of p21 mRNA.

[11] = tested on: MCF10A non-cancerous breast epithelial cells; test: MTT assay / phase contrast microscopy on non-tumorigenic cells; format: cell-based, Human; details: 50 μM, 3 days or prolonged to six days
Method: as §6, §3

[12] = tested on: p21, p27, CDK2, cyclin B and CDK1; test: Cell cycle regulatory protein expression by Western blotting; format: cell-based, Human; details: 50 μM, different cell lines
Method: FIG. 3: Regulation of key cell cycle regulatory proteins by Lappaol F. A-D. The indicated cells were treated with vehicle (DMSO) or Lappaol F (50 μM) for indicated time and protein expression of different cell cycle regulatory protein was analyzed by Western blotting. “C”: vehicle-treated control.
as §9

mutant-p53 = test: Mutant-p53 expression by Western blotting; format: cell-based, Human
Method: as §1, §2

RKO cells [13] = test: Mitotic index by DAPI staining; format: cell-based, Human; details: 50 μM, 72 hours
Method: as §7, §8

[14] = tested on: caspases 8, 9 and 3 in MDA-MB-231 cells; test: Caspase activation by Western blotting; format: cell-based, Human; details: 50 μM
Method: (§10) FIG. 4: Effect of Lappaol F on caspase activation. The indicated cells were treated with vehicle (DMSO) or Lappaol F (50 μM) for indicated time. Activation of caspases 8, 9 and 3 (indicated by reduced levels of procaspases) was analyzed by Western blotting using indicated antibodies. “C”: vehicle-treated control.
as §9

[15] = tested on: caspases 8 and 9 in MCF-7 cells; test: Caspase activation by Western blotting; format: cell-based, Human; details: 50 μM
Method: as §10, §9

[16] = tested on: caspases 8, 9 and 3 in HeLa cells; test: Caspase activation by Western blotting; format: cell-based, Human; details: 50 μM
Method: as §10, §9

HeLa tumor xenografts = test: HeLa xenograft tumor growth in nude mice; format: in vivo, BALB/c nude mice
Source text: All animal studies were approved and performed according to Animal Care and Use Guidelines of the Animal Ethics Committee at Guangzhou University of Chinese Medicine (Document No. syxk (Yue) 2008-0001). BALB/c nude mice (female, 4-5 weeks old) were first subcutaneously injected with 5×10^6 of HeLa cells on the back to establish tumor xenografts. Nine-days after tumor cell injection, mice with tumor volume of 90 mm^3-290 mm^3 were randomized into 3 groups; the average initial tumor volumes in each treatment group of mice were 161.28±23.9 mm^3 (for vehicle control), 160.7±17 7 mm^3 (for mice treated with Lappaol F 5 mg/kg) and 144.5±20 5 mm^3 (for mice treated with Lappaol F 10 mg/kg), respectively. Mice were then treated with Lappaol F (5 mg/kg/d, N=7; or 10 mg/kg/d, N=6) or with equivalent volume of vehicle (5% DMSO plus 5% Tween 80 in 5% glucose solution, 5 mL/kg/day, N=7) by intravenous injection for 15 days. Tumor size was monitored by measuring two perpendicular diameters with a caliper every 4 days. The tumor volume was calculated as volume=length×width^2×0.5. Cases of death and body weight in mice were monitored daily. The animal experiments were terminated on day 15 (tumor size exceeded a mean diameter of 20 mm in control animals) by sacrificing mice according to the guidelines. Tumor xenografts were then stripped and weighed. All results were expressed as Mean±standard error of the mean (SEM). Effects of various treatments were analyzed using the ONE-WAY ANOVA analysis and P-values <0.05 were considered statistically significant.

COc1cc([C@H]2Oc3c(OC)cc(C[C@H]4COC(=O)[C@@H]4Cc4cc(OC)c5c(c4)[C@H](CO)[C@@H](c4ccc(O)c(OC)c4)O5)cc3[C@@H]2CO)ccc1O [Lappaol F]
levels of wild-type p53 (wild-type p53; MCF-7 cells): no significant influence | expression levels of wild-type-p53 (wild-type p53; RKO cells): did not significantly affect | EC50 (MDA-MB-231 cells [1]): 16.8 µM | EC50 (MCF-7 cells [2]): 13.3 µM | EC50 (RKO cells [3]): 25.2 µM | p21 promoter activity [4]: significantly enhanced | upregulation of p21 promoter activity [5]: 8.3 folds | induction of the p21 promoter [6]: 3.5 fold | growth inhibitory effect against tumor cell lines [7]: strong growth inhibitory effect | cell cycle arrest phase (HeLa cells): predominantly arrested in 2N G1-phase | sub-2N cell death population (sub-G1) (HeLa cells): 15% | cell cycle arrest phase (MDA-MB-231 cells [8]): mainly arrested in 4N G2- (or M)-phase | cell cycle arrest phase (MCF-7 cells [9]): predominantly arrested in 2N G1-phase | cell cycle arrest phase (RKO cells [10]): mainly arrested in 4N G2- (or M)-phase | expression of c-Myc, MDM2 and HuR oncoproteins (c-Myc, MDM2 and HuR): strongly down-regulates | cytotoxicity towards MCF10A non-cancerous breast epithelial cells [11]: minimal cytotoxicity | expression levels of CDK inhibitors p21 and p27 [12]: strikingly elevated | levels of CDK2, cyclin B and CDK1 [12]: clearly reduced | levels of mutant-p53 (mutant-p53; MDA-MB-231 cells): significantly reduced | mutant-p53 expression (mutant-p53; MDA-MB-468 and T47D cells): strongly inhibited | mitotic nuclei (mitotic index) (RKO cells [13]): no mitotic nuclei were observed | caspase activation [14]: activation of caspases 8, 9 and 3 was observed | caspase activation [15]: no clear evidence of caspase activation | caspase activation [16]: elicited caspases 9 and 3 activation | inhibition of tumor growth relative to vehicle (HeLa tumor xenografts; 5 mg/kg/day i.v., 15 days): 54% | inhibition of tumor growth relative to vehicle (HeLa tumor xenografts; 10 mg/kg/day i.v., 15 days): 64% | lethality / body weight change in mice (HeLa tumor xenografts; 5 and 10 mg/kg/day i.v., 15 days): without significant body weight changes; also recorded: did not observe lethality or weight loss | effect on HeLa xenografts by intraperitoneal injection (HeLa tumor xenografts; intraperitoneal injection): did not show any significant effect
